Reference: PMC2883612 (Journal of nuclear medicine : official publication, Society …, 2009)

Key:
[1] = Plasma metabolite analysis and plasma input function; assay type: in vivo; settings: human; for metabolites in plasma radioactivity: 30 min after injection; for plasma clearance time constant: monoexponential fitting from 20 to 60 min
[2] = Pharmacologic effects and safety tests in human subjects after PET; assay type: in vivo
[3] = cited from earlier work
TSPO [4] = settings: rat model of neurodegeneration; cited from earlier work
TSPO [5] = settings: in vivo; cited from earlier work
TSPO [6] = target: TSPO (Homo sapiens, UniProt P30536); test: Brain PET with arterial input, compartmental modeling; settings: 1-tissue model, mean ± SD
Chain of TSPO (Homo sapiens, UniProt P30536) (P30536 whole entry): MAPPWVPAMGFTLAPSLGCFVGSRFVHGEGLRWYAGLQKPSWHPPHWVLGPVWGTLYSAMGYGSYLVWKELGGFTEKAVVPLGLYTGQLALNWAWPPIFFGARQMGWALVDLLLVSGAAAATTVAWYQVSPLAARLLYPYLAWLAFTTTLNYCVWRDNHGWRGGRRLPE

**Q.** For `CCN(CC)C(=O)Cc1c(-c2ccc(OC)cc2)nn2c(C)cc(C)nc12` [^11C-DPA-713, ^11C-N,N-diethyl-2-[2-(4-methoxyphenyl)-5,7-dimethyl-pyrazolo[1,5-a]pyrimidin-3-yl]-acetamide], which “metabolites in plasma radioactivity” value [1] is on record?
**A.** 20%

**Q.** And the “plasma clearance time constant” value [1]?
**A.** 42 min

**Q.** What about the “blood tests before and after the scan” value ([2]; healthy human subjects) of the same compound?
**A.** no abnormalities or interval changes

**Q.** And the “side effects after the PET scans” value ([2]; healthy human subjects)?
**A.** No side effects were reported

**Q.** And the pharmacologic effects ([2]; healthy human subjects, intravenous bolus)?
**A.** No pharmacologic effects were noted

**Q.** And the “12-lead ECGs” value ([2]; within 1 wk before and after injection)?
**A.** no abnormalities or interval changes

**Q.** What about the logP [3] of the same compound?
**A.** 2.4

**Q.** And the “specificity in discriminating between normal and lesioned brain, vs ^11C-R-PK11195” value (TSPO [4])?
**A.** greater specificity

**Q.** Which results are given for `CCC(C)N(C)C(=O)c1cc2ccccc2c(-c2ccccc2Cl)n1` (stereo not shown) [^11C-R-PK11195]?
**A.** blocking effect on ^11C-DPA-713 brain uptake (TSPO [5]): potent blockade of brain uptake; metabolites in plasma radioactivity [1]: 40%; plasma clearance time constant [1]: 37 min; K1 value (TSPO [6]; Caudate): 0.020 ± 0.012 (24.9); VT value (TSPO [6]; Caudate): 0.25 ± 0.09 (23.1); K1 value (TSPO [6]; Cerebellar cortex): 0.025 ± 0.016 (12.5); VT value (TSPO [6]; Cerebellar cortex): 0.32 ± 0.08 (11.9); K1 value (TSPO [6]; Frontal): 0.023 ± 0.013 (14.6); VT value (TSPO [6]; Frontal): 0.33 ± 0.10 (13.9); K1 value (TSPO [6]; Pons): 0.019 ± 0.016 (23.1); VT value (TSPO [6]; Pons): 0.42 ± 0.13 (33.3); K1 value (TSPO [6]; Putamen): 0.026 ± 0.015 (10.3); VT value (TSPO [6]; Putamen): 0.34 ± 0.06 (9.5); K1 value (TSPO [6]; Temporal): 0.016 ± 0.011 (22.0); VT value (TSPO [6]; Temporal): 0.40 ± 0.08 (29.4); K1 value (TSPO [6]; Thalamus): 0.025 ± 0.013 (12.0); VT value (TSPO [6]; Thalamus): 0.42 ± 0.07 (11.9)
